{"source": "patent US9439866B2", "about": "“Trazodone composition for once a day administration” (priority 2005, dated 2016)", "origin": "cited, not measured here", "note": "Entries after “also recorded” stand apart in the source; their conditions may differ.", "data": [{"smiles": "Cl.O=c1n(CCCN2CCN(c3cccc(Cl)c3)CC2)nc2ccccn12", "note": "[trazodone]", "values": [{"measurement": "solubility below its pKa", "setting": "acid media (stomach and upper intestines), pH below pKa", "result": "highly soluble"}, {"measurement": "solubility above its pKa", "setting": "neutral and basic conditions of the lower intestine, pH above pKa", "result": "very low; also recorded: poorly soluble"}]}]}
